# ChEMBL document CHEMBL4673215, “Discovery of DS42450411 as a potent orally active hepcidin production inhibitor: Design and optimization of novel 4-aminopyrimidine derivatives” (Bioorg Med Chem Lett, 2018)
# Active and inactive are the calls of the source. The calls are words filed in the database; no cut-off is given here.
# How the values were obtained:
# [1] = Inhibition of BMP6-stimulated hepcidin production in human HepG2 cells
# [2] = target: Dual specificity tyrosine-phosphorylation-regulated kinase 1A (Homo sapiens, UniProt Q13627); experiment: Inhibition of DYRK1a (unknown origin)
# [3] = target: Dual specificity tyrosine-phosphorylation-regulated kinase 1B (Homo sapiens) (UniProt Q9Y463); experiment: Inhibition of DYRK1b (unknown origin) at 0.5 uM
# [4] = target: Dual specificity protein kinase CLK2 (Homo sapiens) (UniProt P49760); experiment: Inhibition of CLK2 (unknown origin) at 0.5 uM
# [5] = Tmax in C57BL/6J mouse at 30 mg/kg, po; assay type: ADME, organism-based; settings: in vivo
# [6] = Lipophilicity, logD of the compound; assay type: physicochemical; settings: octanol/water
# [7] = Cmax in C57BL/6J mouse at 30 mg/kg, po; assay type: ADME, organism-based; set-up: route oral, dose 30 mg/kg; settings: in vivo
# [8] = Half life in C57BL/6J mouse at 30 mg/kg, po; assay type: ADME, organism-based; settings: in vivo
# [9] = Clearance in C57BL/6J mouse at 30 mg/kg, po; assay type: ADME, organism-based; settings: in vivo
# [10] = Protein binding in plasma (unknown origin) assessed as unbound fraction; assay type: ADME, cell-free
# [11] = AUC in C57BL/6J mouse at 30 mg/kg, po; assay type: ADME, organism-based; set-up: dose 30 mg/kg; settings: in vivo
# Mus musculus = experiment: Inhibition of IL6-induced hepcidin production in C57BL/6J mouse serum at 30 mg/kg, po administered 30 mins prior to IL6 challenge and measured after 4 hrs; assay type: functional, organism-based; settings: time 270.0 min
# [12] = target: T1, Activin receptor type-1 (Homo sapiens) (UniProt Q04771); experiment: Inhibition of ALK2 (unknown origin) at 30 uM
# T1 sequence (whole entry): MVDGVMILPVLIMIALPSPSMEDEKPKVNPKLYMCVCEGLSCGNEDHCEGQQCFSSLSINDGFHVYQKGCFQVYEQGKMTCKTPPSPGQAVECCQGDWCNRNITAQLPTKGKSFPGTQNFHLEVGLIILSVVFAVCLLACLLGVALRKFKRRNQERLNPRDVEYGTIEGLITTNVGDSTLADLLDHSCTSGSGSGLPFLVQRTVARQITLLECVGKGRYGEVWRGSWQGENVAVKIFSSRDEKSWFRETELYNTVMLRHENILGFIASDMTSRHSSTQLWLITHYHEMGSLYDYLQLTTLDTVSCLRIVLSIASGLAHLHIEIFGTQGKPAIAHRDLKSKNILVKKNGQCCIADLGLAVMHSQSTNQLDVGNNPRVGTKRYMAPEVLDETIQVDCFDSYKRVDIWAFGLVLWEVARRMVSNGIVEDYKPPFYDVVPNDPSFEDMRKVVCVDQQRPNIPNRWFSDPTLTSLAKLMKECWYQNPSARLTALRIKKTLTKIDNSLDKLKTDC
# Dual specificity protein kinase CLK2 (Homo sapiens), sequence (P49760 whole entry, looked up): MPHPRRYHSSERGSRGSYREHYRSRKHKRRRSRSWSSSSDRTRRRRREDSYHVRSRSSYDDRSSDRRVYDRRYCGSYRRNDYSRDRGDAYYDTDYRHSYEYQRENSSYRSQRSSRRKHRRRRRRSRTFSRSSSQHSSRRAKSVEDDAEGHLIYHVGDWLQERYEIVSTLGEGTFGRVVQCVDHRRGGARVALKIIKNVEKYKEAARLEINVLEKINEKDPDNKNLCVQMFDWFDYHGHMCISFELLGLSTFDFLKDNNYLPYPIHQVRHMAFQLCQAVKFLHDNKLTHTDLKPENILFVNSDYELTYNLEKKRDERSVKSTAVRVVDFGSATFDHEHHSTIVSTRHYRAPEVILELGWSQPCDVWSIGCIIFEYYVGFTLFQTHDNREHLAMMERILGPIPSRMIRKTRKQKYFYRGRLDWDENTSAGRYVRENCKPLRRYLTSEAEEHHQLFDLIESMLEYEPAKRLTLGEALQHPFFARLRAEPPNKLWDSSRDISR
# Dual specificity tyrosine-phosphorylation-regulated kinase 1B (Homo sapiens), sequence (Q9Y463 whole entry, looked up): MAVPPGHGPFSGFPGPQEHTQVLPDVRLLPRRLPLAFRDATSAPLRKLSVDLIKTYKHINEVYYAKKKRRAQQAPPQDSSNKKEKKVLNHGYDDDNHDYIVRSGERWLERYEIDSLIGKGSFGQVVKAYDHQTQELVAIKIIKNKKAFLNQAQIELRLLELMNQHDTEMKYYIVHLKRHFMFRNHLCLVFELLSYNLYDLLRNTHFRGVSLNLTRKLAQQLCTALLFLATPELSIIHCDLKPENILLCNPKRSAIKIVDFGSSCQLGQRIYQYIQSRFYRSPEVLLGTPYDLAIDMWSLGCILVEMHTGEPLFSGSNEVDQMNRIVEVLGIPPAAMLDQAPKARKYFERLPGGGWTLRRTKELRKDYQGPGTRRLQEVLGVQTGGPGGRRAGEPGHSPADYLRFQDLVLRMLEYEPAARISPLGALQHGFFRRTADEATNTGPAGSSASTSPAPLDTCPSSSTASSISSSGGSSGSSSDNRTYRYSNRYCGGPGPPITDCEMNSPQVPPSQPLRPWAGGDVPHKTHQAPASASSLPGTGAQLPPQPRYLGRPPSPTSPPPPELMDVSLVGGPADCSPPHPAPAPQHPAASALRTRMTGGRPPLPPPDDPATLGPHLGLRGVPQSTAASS
SMILES,IC50 [1],further results
CC1(C)Cc2ccccc2-c2ncnc(N)c21,4.5 µM,–
C=C(c1ccc2c(c1)CC(C)(C)c1c(N)ncnc1-2)C1CCNCC1,0.021 µM,–
CC1(C)Cc2cc(OCCO)ccc2-c2ncnc(N)c21,1.1 µM,–
CC(C)Oc1ccc2c(c1)CC(C)(C)c1c(N)ncnc1-2,0.49 µM,–
CNc1ncnc2c1C1(CCCC1)Cc1ccccc1-2,> 30 µM,–
CC1(C)Cc2cc(C(=O)C3CCNCC3)ccc2-c2ncnc(N)c21,0.3 µM,–
CN(C)c1ncnc2c1C1(CCCC1)Cc1ccccc1-2,> 30 µM,–
COC(=O)c1ccc2c(c1)CC(C)(C)c1c(N)ncnc1-2,11 µM,–
CC1(C)Cc2cc(OC3CCNCC3)ccc2-c2ncnc(N)c21,0.23 µM,–
CC(c1ccc2c(c1)CC(C)(C)c1c(N)ncnc1-2)C1CCNCC1 (racemic),0.073 µM,–
COc1ccc2c(c1)CC(C)(C)c1c(N)n[nH]c1-2,> 30 µM,–
CC1(C)Cc2cc(-c3ccccc3)ccc2-c2ncnc(N)c21,1.5 µM,–
c1ccc2c(c1)CC1(CCCC1)c1cncnc1-2,> 30 µM,–
Cc1cccc2c1-c1ncnc(N)c1C(C)(C)C2,4.7 µM,–
CC1(C)Cc2cc(OC3CCNC3)ccc2-c2ncnc(N)c21 (configuration not stated),0.18 µM,–
Oc1ncnc2c1C1(CCCC1)Cc1ccccc1-2,> 30 µM,–
Cc1ccc2c(c1)CC(C)(C)c1c(N)ncnc1-2,0.6 µM,–
COc1ccc2c(c1)CC(C)(C)c1c(N)nc(C)nc1-2,> 5 µM,–

SMILES,IC50 [1],further results
CC1(C)Cc2cc(OC3CCCNCC3)ccc2-c2ncnc(N)c21 (configuration not stated),0.24 µM,–
Nc1ncnc2c1CCc1ccccc1-2,> 30 µM,IC50 [2]: 57 µM
C=C(c1ccc2c(c1)CC(C)(C)c1c(N)ncnc1-2)C12CC(C1)C2,0.12 µM,–
CC1(C)Cc2cc(C3CCNCC3)ccc2-c2ncnc(N)c21,0.81 µM,–
CC(=O)N1CCC(Oc2ccc3c(c2)CC(C)(C)c2c(N)ncnc2-3)CC1,0.76 µM,–
C=C(c1ccc2c(c1)CC(C)(C)c1c(N)ncnc1-2)[C@H]1CCC[C@H](N)C1,0.042 µM,–
C=C(c1ccc2c(c1)CC(C)(C)c1c(N)ncnc1-2)[C@H]1C[C@H](N)C1,0.031 µM,–
C=C(c1ccc2c(c1)CC(C)(C)c1c(N)ncnc1-2)[C@H]1CC[C@H](N(C)C)CC1,0.11 µM,–
COc1ccc2c(c1)CC(C)(C)c1c(N)ncnc1-2,0.53 µM,inhibition [3]: Active; inhibition [4]: Active
Cc1ccc2c(c1)-c1ncnc(N)c1C(C)(C)C2,2.8 µM,–
Nc1ncnc2c1C1(CCCC1)Cc1ccccc1-2,4.2 µM,–
COc1ccc2c(c1)CC(C)(C)c1c-2noc1N,> 30 µM,–
CC1(C)Cc2cc(OCC(=O)O)ccc2-c2ncnc(N)c21,11 µM,–
C=C(c1ccc2c(c1)CC(C)(C)c1c(N)ncnc1-2)[C@H]1CC[C@H](NC)CC1,0.045 µM,–
Cc1cccc2c1CC(C)(C)c1c(N)ncnc1-2,5 µM,–
CCOc1ccc2c(c1)CC(C)(C)c1c(N)ncnc1-2,0.42 µM,–
C=C(c1ccc2c(c1)CC(C)(C)c1c(N)ncnc1-2)[C@H]1CC[C@H](N)CC1,0.032 µM,Tmax [5]: 1.17 h; logD [6]: 1.6; Cmax [7]: 0.61 µg/mL; half-life [8]: 4.59 h; CL/F [9]: 11.5 L/h/kg; fraction unbound [10]: 0.065; AUC [11]: 2.58 µg·h/mL; inhibition (Mus musculus): Active; inhibition [12]: inactive
